Test [1] concerns Male CD-1 mice. Briefly: Brain uptake. The test is classed as in vivo, mouse. To be noted: indomethacin 20 mg/kg ip 30 min before LPS 3 mg/kg; n = 6-8/group.
Test [2] deals with Tg2576 mice. The note with it: chronic treatment from 8-15 months of age, ref Sheng et al., 2003; cited from earlier work.

On to `COc1ccc2c(c1)c(CC(=O)O)c(C)n2C(=O)c1ccc(Cl)cc1` [Indomethacin], for which, in test [1], the “effect of LPS on brain uptake (influx) of I-Aβ” value is “did not reverse”. The “levels of soluble Aβ40 and Aβ42 in the hippocampus and cortex” value in test [2] is recorded as “significantly reduce”.

Values taken from publication PMC2783557 (Brain, behavior, and immunity, 2009).
